Values quoted from earlier work in PMC12435690, “KYLO-0603, a novel liver-targeting, thyroid hormone receptor-β agonist for the inhibition of MASH progression” (PLOS One, 2025).
Where “and” joins values, the source holds several entries; their conditions need not be identical. Identical values can stand only once.

System: THR-β over THR-α
Parameters: method as in PMID 38771485, PMID 33306682, PMID 9653548, PMID 32098589
Conditions: in vitro THR competition assays ref [28],[47],[48],[49]; cited from earlier work

CC(C)c1cc(Oc2c(Cl)cc(-n3nc(C#N)c(=O)[nH]c3=O)cc2Cl)n[nH]c1=O [Resmetirom]
selectivity ratio for THR-β over THR-α: 12 and 17
